Source: patent US4920103A, “Modifications of mycinose and 3-O-demethylmycinose in tylosin-type macrolides” (Eli Lilly and Company, priority 1986, dated 1990)
Converted amounts (≈) assume the structure as drawn. Like-named read-outs stand apart in the source and are kept apart here.

What was measured:
[1] = system: Staphylococcus aureus X1.1; assay: MIC, standard agar-dilution assay, S. aureus X1.1; type: cell-based
Procedure: (§1) The MIC's in Table II were determined by standard agar-dilution assays. The MIC's in Table III were obtained using conventional broth-dilution microtiter tests.

[2] = system: Staphylococcus aureus V41; assay: MIC, standard agar-dilution assay, S. aureus V41; type: cell-based; details: Staphylococcus aureus, V41
Procedure: as §1

[3] = system: Staphylococcus aureus X400; assay: MIC, standard agar-dilution assay, S. aureus X400; type: cell-based
Procedure: as §1

[4] = system: Staphylococcus aureus S13E; assay: MIC, standard agar-dilution assay, S. aureus S13E; type: cell-based
Procedure: as §1

[5] = system: Staphylococcus epidermidis EPI1; assay: MIC, standard agar-dilution assay, S. epidermidis EPI1; type: cell-based
Procedure: as §1

[6] = system: Staphylococcus epidermidis 222; assay: MIC, standard agar-dilution assay, S. epidermidis 222; type: cell-based
Procedure: as §1

[7] = system: Streptococcus pyogenes C203; assay: MIC, standard agar-dilution assay, S. pyogenes C203; type: cell-based; details: Streptococcus pyogenes, C203
Procedure: as §1

[8] = system: Streptococcus pneumoniae Park I; assay: MIC, standard agar-dilution assay, S. pneumoniae Park I; type: cell-based; details: Streptococcus pneumoniae
Procedure: as §1

[9] = system: Streptococcus Group D X66; assay: MIC, standard agar-dilution assay, Streptococcus Group D X66; type: cell-based
Procedure: as §1

[10] = system: Streptococcus Group D 2041; assay: MIC, standard agar-dilution assay, Streptococcus Group D 2041; type: cell-based; details: GROUPD2041
Procedure: as §1

[11] = system: Haemophilus influenzae C.L.; assay: MIC, standard agar-dilution assay, H. influenzae C.L.; type: cell-based
Procedure: as §1

[12] = system: Haemophilus influenzae 76; assay: MIC, standard agar-dilution assay, H. influenzae 76; type: cell-based
Procedure: as §1

[13] = system: Escherichia coli EC14; assay: MIC, standard agar-dilution assay, E. coli EC14; type: cell-based
Procedure: as §1

[14] = system: Klebsiella pneumoniae X68; assay: MIC, standard agar-dilution assay, K. pneumoniae X68; type: cell-based
Procedure: as §1

[15] = system: Pseudomonas aeruginosa X239; assay: MIC, standard agar-dilution assay, P. aeruginosa X239; type: cell-based
Procedure: as §1

[16] = system: Staphylococcus aureus; assay: MIC, broth-dilution microtiter test, S. aureus; type: cell-based
Procedure: as §1

[17] = system: Streptococcus sp. 19F; assay: MIC, broth-dilution microtiter test, Streptococcus sp. 19F; type: cell-based; details: Streptococcus, SP.19F
Procedure: as §1

[18] = system: Pasteurella multocida 17E; assay: MIC, broth-dilution microtiter test, P. multocida 17E; type: cell-based; details: Pasteurella multocida, 17E
Procedure: as §1

[19] = system: Pasteurella multocida 60A; assay: MIC, broth-dilution microtiter test, P. multocida 60A; type: cell-based
Procedure: as §1

[20] = system: Pasteurella multocida 40G; assay: MIC, broth-dilution microtiter test, P. multocida 40G; type: cell-based
Procedure: as §1

[21] = system: Pasteurella multocida 22A; assay: MIC, broth-dilution microtiter test, P. multocida 22A; type: cell-based
Procedure: as §1

[22] = system: Pasteurella multocida 68C; assay: MIC, broth-dilution microtiter test, P. multocida 68C; type: cell-based
Procedure: as §1

[23] = system: Pasteurella hemolytica 23C; assay: MIC, broth-dilution microtiter test, P. hemolytica 23C; type: cell-based
Procedure: as §1

[24] = system: Pasteurella hemolytica 41D; assay: MIC, broth-dilution microtiter test, P. hemolytica 41D; type: cell-based
Procedure: as §1

[25] = system: Pasteurella hemolytica 22C; assay: MIC, broth-dilution microtiter test, P. hemolytica 22C; type: cell-based
Procedure: as §1

[26] = system: Bordetella bronchiseptica; assay: MIC, broth-dilution microtiter test, B. bronchiseptica; type: cell-based
Procedure: as §1

[27] = system: Mycoplasma gallisepticum 29C; assay: MIC, broth-dilution microtiter test, M. gallisepticum 29C; type: cell-based; details: Mycoplasmoides gallisepticum
Procedure: as §1

[28] = system: Mycoplasma gallisepticum 15E; assay: MIC, broth-dilution microtiter test, M. gallisepticum 15E; type: cell-based; details: Mycoplasmoides gallisepticum
Procedure: as §1

[29] = system: Mycoplasma gallisepticum 36H; assay: MIC, broth-dilution microtiter test, M. gallisepticum 36H; type: cell-based; details: Mycoplasmoides gallisepticum
Procedure: as §1

[30] = system: Mycoplasma synoviae 40A; assay: MIC, broth-dilution microtiter test, M. synoviae 40A; type: cell-based; details: Mycoplasmopsis synoviae, 40A
Procedure: as §1

[31] = system: Mycoplasma hyorhinis 29E; assay: MIC, broth-dilution microtiter test, M. hyorhinis 29E; type: cell-based; details: Mycoplasma, 29E
Procedure: as §1

[32] = system: Mycoplasma hyopneumoniae S5972; assay: MIC, broth-dilution microtiter test, M. hyopneumoniae S5972; type: cell-based; details: Mesomycoplasma hyopneumoniae, S5972
Procedure: as §1

[33] = system: Streptococcus pyogenes C203; assay: Protection of mice experimentally infected with Streptococcus pyogenes C203; type: in vivo; details: Streptococcus pyogenes, doses given 1 and 4 hours postinfection, read-out: ED50
Procedure: The formula 1 compounds have shown in vivo antimicrobial activity against experimentally-induced infections in laboratory animals. When two doses of test compound were administered to mice experimentally infected with Streptococcus pyogenes C203, the activity observed was measured as an ED50 value [effective dose in mg/kg to protect 50% of the test animals: see Warren Wick, et al., J. Bacteriol. 81, 233-235 (1961)].
^a mg/kg × 2; doses given 1 and 4 hours postinfection

[34] = broth-dilution microtiter, read-out: MIC

Row | Compound | MIC [1] | MIC [2] | MIC [3] | MIC [4] | MIC [5] | MIC [7] | MIC [8] | MIC [9] | MIC [10] | MIC [16] | MIC [17] | MIC [18] | MIC [20] | MIC [22] | MIC [27] | MIC [29] | ED50 ([33]; C203, oral) | ED50 ([33]; C203, sc, subcutaneous) | also measured
1 | CCC1OC(=O)CC(O)C(C)C(OC2OC(C)C(O)C(N(C)C)C2O)C(CCOc2ccccc2)CC(C)C(=O)C=CC(C)=CC1COC1OC(C)CC(OC)C1OC (stereo not drawn) [Compound 11, 4"-Deoxy-20-DH-20-O-phenyl-desmycosin] | 0.25 µg/mL (≈ 0.3 µM) | 0.25 µg/mL (≈ 0.3 µM) | 0.25 µg/mL (≈ 0.3 µM) | 0.25 µg/mL (≈ 0.3 µM) | 0.25 µg/mL (≈ 0.3 µM) | 0.25 µg/mL (≈ 0.3 µM) | 0.25 µg/mL (≈ 0.3 µM) | 2 µg/mL (≈ 2.4 µM) | 4 µg/mL (≈ 4.8 µM) | 0.78 µg/mL (≈ 0.935 µM) | 12.5 µg/mL (≈ 15 µM) | 25 µg/mL (≈ 30 µM) | 25 µg/mL (≈ 30 µM) | 12.5 µg/mL (≈ 15 µM) | 0.39 µg/mL (≈ 0.468 µM) | 25 µg/mL (≈ 30 µM) | 34 mg/kg | 10 mg/kg | MIC ([6]; agar-dilution, read-out: MIC): 0.125 µg/mL (≈ 0.15 µM); MIC [11]: 32 µg/mL (≈ 38.4 µM); MIC [12]: 32 µg/mL (≈ 38.4 µM); MIC [13]: > 128 µg/mL; MIC [14]: > 128 µg/mL; MIC [15]: > 128 µg/mL; MIC [19]: 25 µg/mL (≈ 30 µM); MIC [21]: 25 µg/mL (≈ 30 µM); MIC [23]: 25 µg/mL (≈ 30 µM); MIC [24]: 25 µg/mL (≈ 30 µM); MIC [25]: 25 µg/mL (≈ 30 µM); MIC [26]: > 50 µg/mL; MIC [28]: 12.5 µg/mL (≈ 15 µM); MIC [30]: 1.56 µg/mL (≈ 1.87 µM); MIC [31]: 25 µg/mL (≈ 30 µM); MIC [32]: > 25 µg/mL
2 | CCC1OC(=O)CC(O)C(C)C(OC2OC(C)C(O)C(N(C)C)C2O)C(CCOc2ccccc2)CC(C)C(=O)C=CC(C)=CC1COC1OC(C)C(=NO)C(OC)C1OC (stereo not drawn) [Compound 4, 4"-O-Hydroxyimino-20-DH-20-O-phenyl-desmycosin] | 0.5 µg/mL (≈ 0.579 µM) | 1 µg/mL (≈ 1.16 µM) | 1 µg/mL (≈ 1.16 µM) | 1 µg/mL (≈ 1.16 µM) | 1 µg/mL (≈ 1.16 µM) | 2 µg/mL (≈ 2.32 µM) | 2 µg/mL (≈ 2.32 µM) | 2 µg/mL (≈ 2.32 µM) | 4 µg/mL (≈ 4.63 µM) | 1.56 µg/mL (≈ 1.81 µM) | 0.78 µg/mL (≈ 0.904 µM) | 50 µg/mL (≈ 57.9 µM) | 50 µg/mL (≈ 57.9 µM) | 50 µg/mL (≈ 57.9 µM) | 1.56 µg/mL (≈ 1.81 µM) | 50 µg/mL (≈ 57.9 µM) | 39.6 mg/kg | > 10 mg/kg | MIC [6]: 0.5 µg/mL (≈ 0.579 µM); MIC ([11]; agar-dilution, ampicillin-sensitive strain, read-out: MIC): > 128 µg/mL; MIC ([12]; agar-dilution, ampicillin-resistant strain, read-out: MIC): > 128 µg/mL; MIC ([13]; agar-dilution, read-out: MIC): > 128 µg/mL; MIC ([14]; agar-dilution, read-out: MIC): > 128 µg/mL; MIC ([15]; agar-dilution, read-out: MIC): > 128 µg/mL; MIC ([19]; broth-dilution microtiter, avian isolate, read-out: MIC): > 50 µg/mL; MIC [21, 34]: > 50 µg/mL; MIC [23, 34]: > 50 µg/mL; MIC [24, 34]: > 50 µg/mL; MIC [25, 34]: > 50 µg/mL; MIC [26, 34]: > 50 µg/mL; MIC [28, 34]: 25 µg/mL (≈ 29 µM); MIC [32, 34]: > 50 µg/mL
